Results as given in patent publication US4236012A, “5-Phenethyl-2-oxazolidone derivatives and a process for producing the same” (Nippon Chemiphar Company, Limited, priority 1978, dated 1980).

Assays:
Type in all cases: in vivo, dd Male mice
mice [1] = assay: Analgetic Effect on Acetic Acid-Induced Writhing Method; conditions: Mus musculus, oral, 30 minutes before intraperitoneal 0.6% acetic acid, writhing within 20 minutes, Litchfield Wilcoxon method
Method: (2) Analgetic Effect on Acetic Acid-Induced Writhing Method:
dd Male mice weighing 18 to 22 g, each group consisting of ten animals were given an intraperitoneal injection of 0.6% acetic acid in a dosage of 0.1 ml/10 g per body weight. The number of writhing syndromes occurring within 20 minutes after the injection was observed. Thereafter, the mice were orally given the test compounds suspended in a 0.2% carboxymethylcellulose solution 30 minutes before the injection of acetic acid. The inhibitory percentage was estimated in comparison with a control in which only a 0.2% carboxymethylcellulose solution was given, and the ED50 values were calculated by the Litchfield Wilcoxon method.

mice [2] = assay: Muscular Relaxing Effect: Rotarod Method; conditions: Mus musculus, oral, falling within 3 minutes from rod of 3 cm diameter at 10 rpm, maximum response over 15-180 minutes, Litchfield Wilcoxon method, read-out: ED50 Values, R.R (Rotarod Method)
Method: (§1) (1) Muscular Relaxing Effect:
(§2) dd Male mice weighing 18 to 22 g, one group consisting of ten animals were orally given the compounds (I) to (III) each suspended in a 0.2% carboxymethylcellulose solution in a dosage of 0.25 ml/10 g per body weight. Mephenesin and 5-(o-chlorobenzyl)-2-oxazoline were used as active placebos. The experiment was carried out according to the methods (a) to (c) as described below, and the ED50 values were calculated by the Litchfield Wilcoxon method, based on the maximum response in each dosage which was measured at intervals of 15, 30, 45, 60, 90, 120, 150 and 180 minutes after the administration of each of the test compounds.
Mice were placed on Rotar Load (made by Natsume Seisakusho Co., Ltd.) having a diameter of 3 cm and rotating at a speed of 10 rpm, and their falling (occurring within 3 minutes) was observed.

mice [3] = assay: Muscular Relaxing Effect: Traction Test; conditions: Mus musculus, oral, hind legs on wire within 5 seconds, maximum response over 15-180 minutes, Litchfield Wilcoxon method, read-out: ED50 Values, T.T (Traction Test)
Method: as §1, §2

mice [4] = assay: Muscular Relaxing Effect: Inclined Plane Test; conditions: Mus musculus, oral, veneer inclined at 30 degrees and wire network at 60 degrees, maximum response over 15-180 minutes, Litchfield Wilcoxon method, read-out: ED50 Values, I.P (Inclined Plane Test)
Method: as §1, §2
Mice were placed on veneer inclined at an angle of 30 degrees and on a wire network inclined at an angle of 60 degrees of which one mesh was 5 mm square, and the mice sliding down were considered as positive in comparison with their normal behavior.

`Cc1c(N(C)C)c(=O)n(-c2ccccc2)n1C` [Aminopyrine] showed an ED50 (mice [1]) of 64 mg/kg.
For `O=C1NCC(Cc2ccccc2Cl)O1` (centres unmarked) [Compound A, 5-(o-Chlorobenzyl)-2-oxazolidone, reference compound], the ED50 (mice [2]) was 210 mg/kg, the ED50 (mice [3]) was 390 mg/kg and the ED50 (mice [4]) was 330 mg/kg. For the same compound, the ED50 (mice [1]) was 40 mg/kg.
Compound `O=C1NCC(CCc2ccccc2)O1` (centres unmarked) [Compound I, 5-Phenethyl-2-oxazolidone] has an ED50 (mice [2]) of 196 mg/kg, an ED50 (mice [3]) of 217 mg/kg and an ED50 (mice [4]) of 261 mg/kg.
For `O=C1NCC(CCc2ccccc2F)O1` (centres unmarked) [Compound II, 5-(o-Fluorophenethyl)-2-oxazolidone], the ED50 (mice [2]) was 194 mg/kg, the ED50 (mice [3]) was 230 mg/kg and the ED50 (mice [4]) was 297 mg/kg.
Work on `O=C1NCC(CCc2ccccc2Cl)O1` (centres unmarked) [Compound III, 5-(o-Chlorophenethyl)-2-oxazolidone] yielded an ED50 (mice [2]) of 182 mg/kg, an ED50 (mice [3]) of 225 mg/kg and an ED50 (mice [4]) of 268 mg/kg. For the same compound, the ED50 (mice [1]) was 36 mg/kg.
Compound `Cc1ccccc1OCC(O)CO` (centres unmarked) [Mephenesin, reference compound] has an ED50 (mice [3]) of 460 mg/kg and an ED50 (mice [4]) of 470 mg/kg.
